System: MDA-MB-468 multi-cell spheroids, viability
Assay: Anticancer human tumor MDA-MB-468 cell line growth inhibition [IpAb];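 also: spheroids exposed to agents for seven days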;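 as to viability, T/C: 100% = DMSO vehicle control viability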
Details: for IC50: curve of first compound; for viability, T/C: stronger effect = lower value
How it was run: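 Multi-cell spheroids of 60% tumour cells, 25% HUVEC and 15% MSC in ultra-low-attachment U-bottom wells, treated with agents combined with ipatasertib or abemaciclib. Half-log ranges top out near clinical Cmax, or 10 microM when Cmax is unknown.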

[1] = second compound 0.1 µM, first compound 0.0316 µM
[2] = second compound 0.1 µM, first compound 0.1 µM
[3] = second compound 0.1 µM, first compound 0.316 µM
[4] = second compound 0.1 µM, first compound 1 µM
[5] = second compound 0.1 µM, first compound 3.16 µM
[6] = second compound 0.1 µM, first compound 10 µM
[7] = second compound 0.316 µM, first compound 0.0316 µM
[8] = second compound 0.316 µM, first compound 0.1 µM
[9] = second compound 0.316 µM, first compound 0.316 µM
[10] = second compound 0.316 µM, first compound 1 µM
[11] = second compound 0.316 µM, first compound 3.16 µM
[12] = second compound 0.316 µM, first compound 10 µM
[13] = second compound 1 µM, first compound 0.0316 µM
[14] = second compound 1 µM, first compound 0.1 µM
[15] = second compound 1 µM, first compound 0.316 µM
[16] = second compound 1 µM, first compound 1 µM
[17] = second compound 1 µM, first compound 3.16 µM
[18] = second compound 1 µM, first compound 10 µM
[19] = second compound 3.16 µM, first compound 0.0316 µM
[20] = second compound 3.16 µM, first compound 0.1 µM
[21] = second compound 3.16 µM, first compound 0.316 µM
[22] = second compound 3.16 µM, first compound 1 µM
[23] = second compound 3.16 µM, first compound 3.16 µM
[24] = second compound 3.16 µM, first compound 10 µM
[25] = second compound 10 µM, first compound 0.0316 µM
[26] = second compound 10 µM, first compound 0.1 µM
[27] = second compound 10 µM, first compound 0.316 µM
[28] = second compound 10 µM, first compound 1 µM
[29] = second compound 10 µM, first compound 3.16 µM
[30] = second compound 10 µM, first compound 10 µM

`C=CC(=O)N1CCN(c2nc(=O)n(-c3c(C)ccnc3C(C)C)c3nc(-c4c(O)cccc4F)c(F)cc23)C(C)C1` (stereo not given) + CC(C)NCC(C(=O)N1CCN(c2ncnc3c2C(C)CC3O)CC1)c1ccc(Cl)cc1 was tested, and the IC50 (second compound 0.1 µM) was 7040 nM, the IC50 (second compound 0.316 µM) was 4930 nM and the IC50 (second compound 1 µM) was 4170 nM. The IC50 (second compound 3.16 µM) was under 31.6 nM, the IC50 (second compound 10 µM) was under 31.6 nM and the viability, T/C [1] was 115%. It also gave a viability, T/C [2] of 123%, a viability, T/C [3] of 118% and a viability, T/C [4] of 105%. It also gave a viability, T/C [5] of 78.2%, a viability, T/C [6] of 37.8% and a viability, T/C [7] of 94.4%. The viability, T/C [8] was 69.8%, the viability, T/C [9] was 68.4% and the viability, T/C [10] was 71.6%. The viability, T/C [11] was 67.3%, the viability, T/C [12] was 27.4% and the viability, T/C [13] was 64.5%. The viability, T/C [14] was 55.9%, the viability, T/C [15] was 62.4% and the viability, T/C [16] was 57.6%. It also gave a viability, T/C [17] of 59.8%, a viability, T/C [18] of 19.2% and a viability, T/C [19] of 42.3%. The viability, T/C [20] was 41.2%, the viability, T/C [21] was 44.5% and the viability, T/C [22] was 39.6%. It also gave a viability, T/C [23] of 29.6%, a viability, T/C [24] of 8.37% and a viability, T/C [25] of 19.5%. The viability, T/C [26] was 22.1%, the viability, T/C [27] was 20.5% and the viability, T/C [28] was 19.3%. For the same compound, the viability, T/C [29] was 13.8% and the viability, T/C [30] was 5.04%.
Work on `CC(C)(C)c1cnc(CSc2cnc(NC(=O)C3CCNCC3)s2)o1` + CC(C)NCC(C(=O)N1CCN(c2ncnc3c2C(C)CC3O)CC1)c1ccc(Cl)cc1 yielded an IC50 (second compound 0.1 µM) of 69.1 nM, an IC50 (second compound 0.316 µM) of 45.3 nM and an IC50 (second compound 1 µM) of 36.9 nM. The IC50 (second compound 3.16 µM) was under 9.49 nM, the IC50 (second compound 10 µM) was under 9.49 nM and the viability, T/C (second compound 0.1 µM, first compound 0.00949 µM) was 110%. It also gave a viability, T/C (second compound 0.1 µM, first compound 0.03 µM) of 91.4%, a viability, T/C (second compound 0.1 µM, first compound 0.0949 µM) of 35% and a viability, T/C (second compound 0.1 µM, first compound 0.3 µM) of 0.3%. For the same compound, the viability, T/C (second compound 0.1 µM, first compound 0.949 µM) was 0.19%, the viability, T/C (second compound 0.1 µM, first compound 3 µM) was 0.32% and the viability, T/C (second compound 0.316 µM, first compound 0.00949 µM) was 73.9%. The viability, T/C (second compound 0.316 µM, first compound 0.03 µM) was 67.4%, the viability, T/C (second compound 0.316 µM, first compound 0.0949 µM) was 18.8% and the viability, T/C (second compound 0.316 µM, first compound 0.3 µM) was 0.27%. For the same compound, the viability, T/C (second compound 0.316 µM, first compound 0.949 µM) was 0.15%, the viability, T/C (second compound 0.316 µM, first compound 3 µM) was 0.27% and the viability, T/C (second compound 1 µM, first compound 0.00949 µM) was 62.2%. The viability, T/C (second compound 1 µM, first compound 0.03 µM) was 58.7%, the viability, T/C (second compound 1 µM, first compound 0.0949 µM) was 10% and the viability, T/C (second compound 1 µM, first compound 0.3 µM) was 0.2%. For the same compound, the viability, T/C (second compound 1 µM, first compound 0.949 µM) was 0.14%, the viability, T/C (second compound 1 µM, first compound 3 µM) was 0.24% and the viability, T/C (second compound 3.16 µM, first compound 0.00949 µM) was 41.5%. The viability, T/C (second compound 3.16 µM, first compound 0.03 µM) was 35.4%, the viability, T/C (second compound 3.16 µM, first compound 0.0949 µM) was 11.5% and the viability, T/C (second compound 3.16 µM, first compound 0.3 µM) was 0.23%. The viability, T/C (second compound 3.16 µM, first compound 0.949 µM) was 0.13%, the viability, T/C (second compound 3.16 µM, first compound 3 µM) was 0.31% and the viability, T/C (second compound 10 µM, first compound 0.00949 µM) was 21.3%. It also gave a viability, T/C (second compound 10 µM, first compound 0.03 µM) of 18.1%, a viability, T/C (second compound 10 µM, first compound 0.0949 µM) of 1.19% and a viability, T/C (second compound 10 µM, first compound 0.3 µM) of 0.32%. It also gave a viability, T/C (second compound 10 µM, first compound 0.949 µM) of 0.24% and a viability, T/C (second compound 10 µM, first compound 3 µM) of 0.65%.
Compound `Cn1ncc(Cl)c1-c1cc(C(=O)NC(CN)Cc2cccc(F)c2)sc1Cl` (stereo not given) + CC(C)NCC(C(=O)N1CCN(c2ncnc3c2C(C)CC3O)CC1)c1ccc(Cl)cc1 has an IC50 (second compound 0.1 µM) of 366 nM, an IC50 (second compound 0.316 µM) of 133 nM and an IC50 (second compound 1 µM) of 52.2 nM. It also gave an IC50 (second compound 3.16 µM) of under 31.6 nM, an IC50 (second compound 10 µM) of under 31.6 nM and a viability, T/C [1] of 71.1%. The viability, T/C [2] was 64%, the viability, T/C [3] was 54.8% and the viability, T/C [4] was 30.3%. For the same compound, the viability, T/C [5] was 16.1%, the viability, T/C [6] was 0.14% and the viability, T/C [7] was 57.7%. The viability, T/C [8] was 51.5%, the viability, T/C [9] was 44% and the viability, T/C [10] was 31.8%. The viability, T/C [11] was 16.6%, the viability, T/C [12] was 0.13% and the viability, T/C [13] was 50.5%. The viability, T/C [14] was 50.9%, the viability, T/C [15] was 36.3% and the viability, T/C [16] was 28.4%. For the same compound, the viability, T/C [17] was 12.6%, the viability, T/C [18] was 0.12% and the viability, T/C [19] was 31.8%. The viability, T/C [20] was 36.1%, the viability, T/C [21] was 31.5% and the viability, T/C [22] was 21.3%. For the same compound, the viability, T/C [23] was 10.8%, the viability, T/C [24] was 0.37% and the viability, T/C [25] was 18.8%. For the same compound, the viability, T/C [26] was 20.4%, the viability, T/C [27] was 17.4% and the viability, T/C [28] was 17.4%. For the same compound, the viability, T/C [29] was 1.85% and the viability, T/C [30] was 0.18%.
Compound `Cn1nccc1Nc1nccc(-c2ccn(C(CO)c3ccc(Cl)c(F)c3)c(=O)c2)n1` (stereo not given) + CC(C)NCC(C(=O)N1CCN(c2ncnc3c2C(C)CC3O)CC1)c1ccc(Cl)cc1 has an IC50 (second compound 0.1 µM) of 3290 nM, an IC50 (second compound 0.316 µM) of 1350 nM and an IC50 (second compound 1 µM) of 417 nM. It also gave an IC50 (second compound 3.16 µM) of under 31.6 nM, an IC50 (second compound 10 µM) of under 31.6 nM and a viability, T/C [1] of 90.7%. For the same compound, the viability, T/C [2] was 88.3%, the viability, T/C [3] was 85% and the viability, T/C [4] was 65.3%. The viability, T/C [5] was 57.3%, the viability, T/C [6] was 2.08% and the viability, T/C [7] was 66%. For the same compound, the viability, T/C [8] was 54.9%, the viability, T/C [9] was 62% and the viability, T/C [10] was 46.3%. For the same compound, the viability, T/C [11] was 44.3%, the viability, T/C [12] was 0.8% and the viability, T/C [13] was 57.9%. It also gave a viability, T/C [14] of 56%, a viability, T/C [15] of 51.3% and a viability, T/C [16] of 42%. For the same compound, the viability, T/C [17] was 16.4%, the viability, T/C [18] was 0.2% and the viability, T/C [19] was 38.6%. The viability, T/C [20] was 38.9%, the viability, T/C [21] was 37% and the viability, T/C [22] was 23.4%. For the same compound, the viability, T/C [23] was 5.84%, the viability, T/C [24] was 0.17% and the viability, T/C [25] was 18.8%. The viability, T/C [26] was 15.8%, the viability, T/C [27] was 19% and the viability, T/C [28] was 9.63%. For the same compound, the viability, T/C [29] was 1.96% and the viability, T/C [30] was 0.26%.
For `Cn1ncnc1[C@H]1c2n[nH]c(=O)c3cc(F)cc(c23)N[C@@H]1c1ccc(F)cc1` + CC(C)NCC(C(=O)N1CCN(c2ncnc3c2C(C)CC3O)CC1)c1ccc(Cl)cc1, the IC50 (second compound 0.1 µM) was over 100 nM, the IC50 (second compound 0.316 µM) was over 100 nM and the IC50 (second compound 1 µM) was 17.9 nM. It also gave an IC50 (second compound 3.16 µM) of under 0.316 nM, an IC50 (second compound 10 µM) of under 0.316 nM and a viability, T/C (second compound 0.1 µM, first compound 0.000316 µM) of 101%. It also gave a viability, T/C (second compound 0.1 µM, first compound 0.001 µM) of 102%, a viability, T/C (second compound 0.1 µM, first compound 0.00316 µM) of 86.9% and a viability, T/C (second compound 0.1 µM, first compound 0.01 µM) of 73.8%. For the same compound, the viability, T/C [1] was 85.8%, the viability, T/C [2] was 65.7% and the viability, T/C (second compound 0.316 µM, first compound 0.000316 µM) was 62%. For the same compound, the viability, T/C (second compound 0.316 µM, first compound 0.001 µM) was 70.7%, the viability, T/C (second compound 0.316 µM, first compound 0.00316 µM) was 62.1% and the viability, T/C (second compound 0.316 µM, first compound 0.01 µM) was 60.2%. For the same compound, the viability, T/C [7] was 55.5%, the viability, T/C [8] was 57.7% and the viability, T/C (second compound 1 µM, first compound 0.000316 µM) was 60.8%. It also gave a viability, T/C (second compound 1 µM, first compound 0.001 µM) of 59.2%, a viability, T/C (second compound 1 µM, first compound 0.00316 µM) of 55.1% and a viability, T/C (second compound 1 µM, first compound 0.01 µM) of 54.2%. It also gave a viability, T/C [13] of 46.2%, a viability, T/C [14] of 41.8% and a viability, T/C (second compound 3.16 µM, first compound 0.000316 µM) of 38.9%. It also gave a viability, T/C (second compound 3.16 µM, first compound 0.001 µM) of 37.8%, a viability, T/C (second compound 3.16 µM, first compound 0.00316 µM) of 40% and a viability, T/C (second compound 3.16 µM, first compound 0.01 µM) of 34.9%. The viability, T/C [19] was 34%, the viability, T/C [20] was 26.6% and the viability, T/C (second compound 10 µM, first compound 0.000316 µM) was 19.3%. The viability, T/C (second compound 10 µM, first compound 0.001 µM) was 22.5%, the viability, T/C (second compound 10 µM, first compound 0.00316 µM) was 18.6% and the viability, T/C (second compound 10 µM, first compound 0.01 µM) was 18.8%. For the same compound, the viability, T/C [25] was 16% and the viability, T/C [26] was 15.6%.

— PubChem BioAssay AID2060326 (Molecular Pharmacology Branch, DTP, NCI, 2025)
